Experimental data: patent US10045529B2, “Quat cleaner with glycerin ether ethoxylates” (Ecolab USA Inc., priority 2012, dated 2018)

Tests used:
[1] = Cloud point of solfactants in various solutions; format: physicochemical
Source text: Various 2-Ethyl Hexanol Glycerin Ether Ethoxylate solfactants were produced using ethoxylation by a KOH Catalyst.
Further the cloud point data for the solfactants in various solutions is shown. The cloud point temperatures show the temperature above which a surfactant-rich phase separates from an aqueous solution. There is a clear relationship between the cloud point and the average EO content of the glycerin ether ethoxylate; as the ethylene oxide content of the solfactant increases, the cloud point and water solubility increase. As the carbon number on the molecule increases, a greater number of moles of ethylene oxide are required to be added to the molecule to retain the same cloud point.

[2] = Glewwe foam meter foam height test; format: physicochemical; details: 50 ppm; for OBSERVATIONS (foam stability after pump stopped): after 5 minutes pump stopped; for Foam Height (in) @ 1 MIN / Foam Height (in) @ 5 MIN: city water 17 gpg, 140° F., 6 psi; for Foam Height (in) @ 1 MIN: 1 minute
Source text: Foam testing was completed for the ethoxylated glycerine ether solfactants in comparison to commercially-available ethoxylated alcohols using a Glewwe foam meter. A Glewwe foam meter provides a dynamic foam test rather than a static test, which is considered more appropriate for simulation of industrial conditions. The equipment and general procedure for the Glewwe form test is described in U.S. Pat. Nos. 3,899,387 and 5,447,648, which are herein incorporated by reference in its entirety. The foam meter itself consists of a thermostated reservoir and a pump to recirculate the aqueous medium with foaming tendencies. The foam developed by the action of the aqueous stream impinging on the surface in the reservoir causes foam formation.
The foam heights of the tested compositions were determined using the following method. First 3000 mL of city water (e.g. 17 gpg) was filled into the Glewwe cylinder. The pump was turned on, pressure adjusted to 6 psi, and heated water to 140° F. The commercially available surfactant (or the solfactant according to the invention) was added at 50 ppm in the cylinder and the timer was started. Foam height was recorded at 1 minute and 5 minutes. After 5 minutes the pump was stopped and foam stability characteristics were observed. The cylinder was then drained, rinsed, and the methods repeated.

[3] = Tergotometer detergency test on EMPA soiled swatches
Protocol: Laundry detergent compositions using 500 ppm sodium hydroxide (e.g. caustic) and the indicated conventional Surfonic® surfactant or the glycerin ether ethoxylate solfactant according to the invention were evaluated. A tergotometer test procedure was employed to measure detergency of test compositions according to the invention. A tergotometer along with 500 mL pots and water bath were employed. First, unwashed swatches from the lot numbers to be used in the test are read on the Konica Minolta Spectrophotometer model CM-3600d to establish the average initial (before washing) L value. A sampling of each swatch type is used. The desired wash temperature is programmed into the Tergotometer and its water bath is allowed to heat up to that temperature. 500 mL of the desired water type is added to each Tergotometer pot and allowed to equilibrate to the desired temperature.
The following standard, commercially available (EMPA) soiled swatches were used for baseline testing in the Examples, as shown in Table 9.
The test detergent compositions are weighed out and added to the Tergotometer pots. Various detergent compositions as shown in Tables 10-11 were employed under varying water conditions, including 5 grain water (Table 10) and 17 grain water (Table 11).
The detergent systems were agitated for 10 minutes to mix and dissolve in the water sources. The agitation/mixing speed RPM was adjusted to 200. The temperature of the detergent compositions dissolved in water was 60° C., unless indicated otherwise in the Figures/Examples set forth below. The swatches are added quickly to their respective pots in a left to right sequence in order to minimize differences in exposure time to the detergent systems. A wash run is completed for at least 10 minutes. At the end of the run, the swatches are removed from the pots quickly in a left to right sequence using a forceps and are transferred into 500 mL-1 liter of cool water to rinse. After rinsing with cold tap water, excess water from the swatches was removed by squeezing the swatches. The process was repeated with rinsing and squeezing excess water at least 2 more times. The swatches were air dried on a visa napkin or paper towel on the lab bench.
The swatches were then read on the HunterLab Color Quest and calculate % soil removal (i.e. whiteness) from the difference between the initial (before washing) L value and the final L value (after washing). Percent Soil Removal=(L after−L initial)/(96−L initial)*100 is represented as L*.

Gel formation with water = format: physicochemical
Source text: The low foam profiles and low viscosity of the glycerin ether ethoxylate solfactants as shown in Examples 5 and 6 were further compared to gel curves of conventional ethoxylated alcohols (e.g. Tomadol surfactants). […]

[4] = 5 gpg water, 50 ppm, 500 ppm sodium hydroxide, 60° C., EMPA 116 (Blood, milk and ink, Cotton)
[5] = 5 gpg, 50 ppm, EMPA 101 (olive oil/carbon black, Cotton)
[6] = 5 gpg, 50 ppm, EMPA 104 (olive oil/carbon black, Cotton blend)
[7] = 5 gpg, 50 ppm, EMPA 106 (mineral oil, Cotton)
[8] = 5 gpg, 50 ppm, EMPA 111 (Pig blood, Cotton)
[9] = 5 gpg, 50 ppm, EMPA 114 (Red wine, Cotton)
[10] = Glycerin Ether Ethoxylate %/Water % 10%/90%

Row | Substance | OBSERVATIONS (foam stability after pump stopped) [2] | Foam Height (in) @ 1 MIN [2] [in] | Foam Height (in) @ 5 MIN [2] [in] | % removal EMPA 116 [3, 4] [%] | % removal EMPA 101 [3, 5] [%] | % removal EMPA 104 [3, 6] [%] | % removal EMPA 106 [3, 7] [%] | % removal EMPA 111 [3, 8] [%] | % removal EMPA 114 [3, 9] [%] | % removal EMPA 101 ([3]; 5 gpg, 100 ppm, EMPA 101) [%] | % removal EMPA 104 ([3]; 5 gpg, 100 ppm, EMPA 104) [%] | % removal EMPA 106 ([3]; 5 gpg, 100 ppm, EMPA 106) [%] | % removal EMPA 111 ([3]; 5 gpg, 100 ppm, EMPA 111) [%] | % removal EMPA 114 ([3]; 5 gpg, 100 ppm, EMPA 114) [%] | % removal EMPA 116 ([3]; 5 gpg, 100 ppm, EMPA 116) [%] | % removal EMPA 101 ([3]; 17 gpg, 50 ppm, EMPA 101) [%] | % removal EMPA 104 ([3]; 17 gpg, 50 ppm, EMPA 104) [%] | % removal EMPA 106 ([3]; 17 gpg, 50 ppm, EMPA 106) [%] | % removal EMPA 111 ([3]; 17 gpg, 50 ppm, EMPA 111) [%] | % removal EMPA 114 ([3]; 17 gpg, 50 ppm, EMPA 114) [%] | also measured
1 | 2-Ethyl Hexanol Glycerin Ether Ethoxylate (1 mole) [2EHGE (1 EO)] | Unstable - Breaks | 3 | 3 | 26 | 27 | 26 | 50.77 | 49 | 0 | 29 | 21 | 48.73 | 52 | −1 | 27 | 19 | 14 | 6 | 32 | 0 | Cloud Point Data 10% in BDG Soln. ([1]; 10% in BDG Soln.): 59.5 °C; % removal EMPA 116 ([3]; 17 gpg, 50 ppm, EMPA 116): 17%; % removal EMPA 101 ([3]; 17 gpg, 100 ppm, EMPA 101): 18%; % removal EMPA 104 ([3]; 17 gpg, 100 ppm, EMPA 104): 15%; % removal EMPA 106 ([3]; 17 gpg, 100 ppm, EMPA 106): 7%; % removal EMPA 111 ([3]; 17 gpg, 100 ppm, EMPA 111): 30%; % removal EMPA 114 ([3]; 17 gpg, 100 ppm, EMPA 114): −1%; % removal EMPA 116 ([3]; 17 gpg, 100 ppm, EMPA 116): 17%
2 | 2-Ethyl Hexanol Glycerin Ether Ethoxylate (3 moles) [2EHGE (3 EO)] | Unstable - Breaks | 3.5 | 4 | 34 | 45 | 49 | 60.8 | 50 | 1 | 29 | 25 | 50.39 | 48 | 0 | 29 | 17 | 15 | 14 | 29 | −2 | Cloud Point Data 1% in 10% NaCl [1]: 33 °C; Cloud Point Data 1% in D.I. H2O ([1]; 1% in D.I. H2O): 50.5 °C; Gel Formation (Gel formation with water; 20%/80%): None; Gel Formation (Gel formation with water; 30%/70%): None; Gel Formation (Gel formation with water; 40%/60%): None; Gel Formation (Gel formation with water; 50%/50%): None; Gel Formation (Gel formation with water; 60%/40%): None; Gel Formation (Gel formation with water; 70%/30%): None; Gel Formation (Gel formation with water; 80%/20%): None; Gel Formation (Gel formation with water; 90%/10%): None; Gel Formation (Gel formation with water; [10]): None; % removal EMPA 116 ([3]; 17 gpg, 50 ppm, EMPA 116): 15%; % removal EMPA 101 ([3]; 17 gpg, 100 ppm, EMPA 101): 19%; % removal EMPA 104 ([3]; 17 gpg, 100 ppm, EMPA 104): 13%; % removal EMPA 106 ([3]; 17 gpg, 100 ppm, EMPA 106): 9%; % removal EMPA 111 ([3]; 17 gpg, 100 ppm, EMPA 111): 27%; % removal EMPA 114 ([3]; 17 gpg, 100 ppm, EMPA 114): −1%; % removal EMPA 116 ([3]; 17 gpg, 100 ppm, EMPA 116): 16%
3 | 2-Ethyl Hexanol Glycerin Ether Ethoxylate (5 moles) [2EHGE (5 EO)] | Unstable - Breaks | 4 | 4 | 30 | 40 | 48 | 59.51 | 48 | 2 | 29 | 23 | 49.62 | 45 | 1 | 28 | 19 | 15 | 13 | 30 | 0 | Cloud Point Data 1% in 10% NaCl [1]: 71.5 °C; Gel Formation (Gel formation with water; 20%/80%): None; Gel Formation (Gel formation with water; 30%/70%): None; Gel Formation (Gel formation with water; 40%/60%): None; Gel Formation (Gel formation with water; 50%/50%): None; Gel Formation (Gel formation with water; 60%/40%): None; Gel Formation (Gel formation with water; 70%/30%): None; Gel Formation (Gel formation with water; 80%/20%): None; Gel Formation (Gel formation with water; 90%/10%): None; Gel Formation (Gel formation with water; [10]): None; % removal EMPA 116 ([3]; 17 gpg, 50 ppm, EMPA 116): 17%; % removal EMPA 101 ([3]; 17 gpg, 100 ppm, EMPA 101): 21%; % removal EMPA 104 ([3]; 17 gpg, 100 ppm, EMPA 104): 19%; % removal EMPA 106 ([3]; 17 gpg, 100 ppm, EMPA 106): 11%; % removal EMPA 111 ([3]; 17 gpg, 100 ppm, EMPA 111): 41%; % removal EMPA 114 ([3]; 17 gpg, 100 ppm, EMPA 114): 0%; % removal EMPA 116 ([3]; 17 gpg, 100 ppm, EMPA 116): 20%
4 | 2-Ethyl Hexanol Glycerin Ether Ethoxylate (7 moles) [2EHGE (7 EO)] | Unstable - Breaks | 5 | 4.5 | 33 | 38 | 47 | 59.88 | 52 | 1 | 25 | 17 | 46.8 | 49 | −3 | 19 | 20 | 15 | 11 | 32 | 0 | Cloud Point Data 1% in 10% NaCl [1]: 78 °C; Gel Formation (Gel formation with water; 20%/80%): None; Gel Formation (Gel formation with water; 30%/70%): None; Gel Formation (Gel formation with water; 40%/60%): None; Gel Formation (Gel formation with water; 50%/50%): None; Gel Formation (Gel formation with water; 60%/40%): None; Gel Formation (Gel formation with water; 70%/30%): None; Gel Formation (Gel formation with water; 80%/20%): None; Gel Formation (Gel formation with water; 90%/10%): None; Gel Formation (Gel formation with water; [10]): None; % removal EMPA 116 ([3]; 17 gpg, 50 ppm, EMPA 116): 16%; % removal EMPA 101 ([3]; 17 gpg, 100 ppm, EMPA 101): 20%; % removal EMPA 104 ([3]; 17 gpg, 100 ppm, EMPA 104): 17%; % removal EMPA 106 ([3]; 17 gpg, 100 ppm, EMPA 106): 9%; % removal EMPA 111 ([3]; 17 gpg, 100 ppm, EMPA 111): 35%; % removal EMPA 114 ([3]; 17 gpg, 100 ppm, EMPA 114): 0%; % removal EMPA 116 ([3]; 17 gpg, 100 ppm, EMPA 116): 17%
